From US10906889B2, “Polycyclic inhibitors of cyclin-dependent kinase 7 (CDK7)” (Dana-Farber Cancer Institute, Inc., priority 2013, dated 2021)
Read-outs that look alike come from different tables or passages of the source. Blank lines part the entries; values can stand above or below the compound they belong to.

Experiments:
CDK7 = target: T1, CDK7 (Homo sapiens, UniProt P50613); test: Adapta kinase assay (Life Technologies), CDK7; type: biochemical
T1 construct: purchased Life Technologies (assay service)
T1 sequence (P50613 whole entry): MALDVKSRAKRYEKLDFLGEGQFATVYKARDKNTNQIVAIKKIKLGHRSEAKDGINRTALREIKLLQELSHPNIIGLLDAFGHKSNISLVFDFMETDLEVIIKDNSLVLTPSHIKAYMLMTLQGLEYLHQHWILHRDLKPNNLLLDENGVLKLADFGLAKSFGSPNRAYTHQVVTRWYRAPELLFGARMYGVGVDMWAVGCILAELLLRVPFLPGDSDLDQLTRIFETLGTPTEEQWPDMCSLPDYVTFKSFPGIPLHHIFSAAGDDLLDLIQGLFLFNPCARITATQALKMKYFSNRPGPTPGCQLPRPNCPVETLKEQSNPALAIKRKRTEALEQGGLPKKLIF
T1 sequence (P51946 whole entry partner): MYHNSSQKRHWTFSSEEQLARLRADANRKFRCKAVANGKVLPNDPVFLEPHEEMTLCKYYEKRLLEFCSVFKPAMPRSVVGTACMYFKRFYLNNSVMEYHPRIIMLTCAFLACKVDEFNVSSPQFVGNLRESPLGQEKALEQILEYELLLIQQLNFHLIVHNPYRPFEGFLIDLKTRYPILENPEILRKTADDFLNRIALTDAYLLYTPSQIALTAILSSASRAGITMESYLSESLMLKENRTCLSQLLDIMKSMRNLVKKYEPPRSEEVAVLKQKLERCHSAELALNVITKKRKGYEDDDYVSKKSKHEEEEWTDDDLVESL
T1 sequence (P51948 whole entry partner): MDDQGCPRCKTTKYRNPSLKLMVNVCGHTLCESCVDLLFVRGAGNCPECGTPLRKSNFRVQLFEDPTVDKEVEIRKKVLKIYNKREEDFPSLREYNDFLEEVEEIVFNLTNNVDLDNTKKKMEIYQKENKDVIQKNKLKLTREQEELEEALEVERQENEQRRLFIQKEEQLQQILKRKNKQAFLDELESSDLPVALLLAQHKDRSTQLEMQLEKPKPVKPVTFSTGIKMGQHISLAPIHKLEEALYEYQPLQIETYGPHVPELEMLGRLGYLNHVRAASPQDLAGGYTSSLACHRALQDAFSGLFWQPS

Jurkat cells = test: Cell proliferation (CellTiter-Glo, 72 hour), Jurkat; type: cell-based; conditions: Homo sapiens, blood cancer cell line
MV4-11 = test: Cell proliferation (CellTiter-Glo, 72 hour), MV4-11; type: cell-based; conditions: Homo sapiens, blood cancer cell line, read-out: MV4-11 inhibition of proliferation (IC50)
SKBR3 = test: Cell proliferation (CellTiter-Glo, 72 hour), SKBR3; type: cell-based; conditions: Homo sapiens, SK-BR-3, breast cancer cell line, read-out: SKBR3 inhibition of proliferation (IC50)
THP-1 = test: Cell proliferation (CellTiter-Glo, 72 hour), THP-1; type: cell-based; conditions: Homo sapiens, blood cancer cell line, read-out: THP-1 inhibition of proliferation (IC50)
A673 = test: Cell proliferation (CellTiter-Glo, 72 hour), A673; type: cell-based; conditions: Homo sapiens, Ewing's sarcoma cell line, read-out: A673 inhibition of proliferation (IC50)
Hs822T = test: Cell proliferation (CellTiter-Glo, 72 hour), Hs822T; type: cell-based; conditions: Ewing's sarcoma cell line, read-out: Hs822T inhibition of proliferation (IC50)
Hs863T = test: Cell proliferation (CellTiter-Glo, 72 hour), Hs863T; type: cell-based; conditions: Ewing's sarcoma cell line, read-out: Hs863T inhibition of proliferation (IC50)
hTERT-HME1 = test: Cell proliferation (CellTiter-Glo, 72 hour), hTERT-HME1; type: cell-based; conditions: breast cancer cell lines table, read-out: hTERT-HME1 inhibition of proliferation (IC50)
SK-ES-1 = test: Cell proliferation (CellTiter-Glo, 72 hour), SK-ES-1; type: cell-based; conditions: Homo sapiens, SK-ES1, Ewing's sarcoma cell line, read-out: SK-ES-1 inhibition of proliferation (IC50)
MCF10A = test: Cell proliferation (CellTiter-Glo, 72 hour), MCF10A; type: cell-based; conditions: Homo sapiens, MCF-10A, breast cancer cell lines table, read-out: MCF10A inhibition of proliferation (IC50)
RD-ES = test: Cell proliferation (CellTiter-Glo, 72 hour), RD-ES; type: cell-based; conditions: Ewing's sarcoma cell line, read-out: RD-ES inhibition of proliferation (IC50)
MDA-MB231 = test: Cell proliferation (CellTiter-Glo, 72 hour), MDA-MB231; type: cell-based; conditions: Homo sapiens, MDA-MB-231, breast cancer cell line, read-out: MDA-MB231 inhibition of proliferation (IC50)
SAOS = test: Cell proliferation (CellTiter-Glo, 72 hour), SAOS; type: cell-based; conditions: osteosarcoma cell line, read-out: SAOS inhibition of proliferation (IC50)
RS4-11 = test: Cell proliferation (CellTiter-Glo, 72 hour), RS4-11; type: cell-based; conditions: Homo sapiens, blood cancer cell line, read-out: RS4-11 inhibition of proliferation (IC50)
MNNG-HOS Cl #5 = test: Cell proliferation (CellTiter-Glo, 72 hour), MNNG-HOS Cl #5; type: cell-based; conditions: osteosarcoma cell line, read-out: MNNG-HOS Cl#5 inhibition of proliferation (IC50)
MCF7 = test: Cell proliferation (CellTiter-Glo, 72 hour), MCF7; type: cell-based; conditions: Homo sapiens, breast cancer cell line, read-out: MCF7 inhibition of proliferation (IC50)
T47D = test: Cell proliferation (CellTiter-Glo, 72 hour), T47D; type: cell-based; conditions: Homo sapiens, breast cancer cell line, read-out: T47D inhibition of proliferation (IC50)
HL60 = test: Cell proliferation (CellTiter-Glo, 72 hour), HL60; type: cell-based; conditions: Homo sapiens, HL-60, blood cancer cell line, read-out: HL60 inhibition of proliferation (IC50)
143B = test: Cell proliferation (CellTiter-Glo, 72 hour), 143B; type: cell-based; conditions: Homo sapiens, osteosarcoma cell line, read-out: 143B inhibition of proliferation (IC50)
CDK5/p25 = CDK5/p25 (Homo sapiens, UniProt Q00535); test: Z'-Lyte kinase assay (Life Technologies), CDK5/p25
Sequence of CDK5/p25 (Q00535 whole entry): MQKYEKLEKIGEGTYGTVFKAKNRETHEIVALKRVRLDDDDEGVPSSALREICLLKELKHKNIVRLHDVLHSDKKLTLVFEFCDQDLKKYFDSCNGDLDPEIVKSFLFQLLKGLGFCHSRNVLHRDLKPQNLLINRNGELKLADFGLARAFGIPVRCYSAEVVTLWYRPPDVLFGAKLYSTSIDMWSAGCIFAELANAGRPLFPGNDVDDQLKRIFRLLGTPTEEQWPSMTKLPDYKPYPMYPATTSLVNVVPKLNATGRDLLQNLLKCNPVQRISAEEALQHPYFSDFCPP
Sequence of CDK5/p25 (Q15078 99-307 partner limits assumed): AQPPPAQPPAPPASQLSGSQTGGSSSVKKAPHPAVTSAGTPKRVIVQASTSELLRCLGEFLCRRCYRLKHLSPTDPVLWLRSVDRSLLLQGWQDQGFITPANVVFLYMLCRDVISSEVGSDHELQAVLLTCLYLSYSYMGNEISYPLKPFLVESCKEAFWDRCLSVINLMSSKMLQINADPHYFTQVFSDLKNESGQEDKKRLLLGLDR

MLK3 = target: T2, MLK3 (Homo sapiens, UniProt Q16584); test: LanthaScreen Eu kinase assay (Life Technologies), MLK3; type: binding; conditions: Table 2; read-out: MLK3 (calculated IC50)
T2 construct: purchased Life Technologies (assay service)
T2 sequence (Q16584 whole entry): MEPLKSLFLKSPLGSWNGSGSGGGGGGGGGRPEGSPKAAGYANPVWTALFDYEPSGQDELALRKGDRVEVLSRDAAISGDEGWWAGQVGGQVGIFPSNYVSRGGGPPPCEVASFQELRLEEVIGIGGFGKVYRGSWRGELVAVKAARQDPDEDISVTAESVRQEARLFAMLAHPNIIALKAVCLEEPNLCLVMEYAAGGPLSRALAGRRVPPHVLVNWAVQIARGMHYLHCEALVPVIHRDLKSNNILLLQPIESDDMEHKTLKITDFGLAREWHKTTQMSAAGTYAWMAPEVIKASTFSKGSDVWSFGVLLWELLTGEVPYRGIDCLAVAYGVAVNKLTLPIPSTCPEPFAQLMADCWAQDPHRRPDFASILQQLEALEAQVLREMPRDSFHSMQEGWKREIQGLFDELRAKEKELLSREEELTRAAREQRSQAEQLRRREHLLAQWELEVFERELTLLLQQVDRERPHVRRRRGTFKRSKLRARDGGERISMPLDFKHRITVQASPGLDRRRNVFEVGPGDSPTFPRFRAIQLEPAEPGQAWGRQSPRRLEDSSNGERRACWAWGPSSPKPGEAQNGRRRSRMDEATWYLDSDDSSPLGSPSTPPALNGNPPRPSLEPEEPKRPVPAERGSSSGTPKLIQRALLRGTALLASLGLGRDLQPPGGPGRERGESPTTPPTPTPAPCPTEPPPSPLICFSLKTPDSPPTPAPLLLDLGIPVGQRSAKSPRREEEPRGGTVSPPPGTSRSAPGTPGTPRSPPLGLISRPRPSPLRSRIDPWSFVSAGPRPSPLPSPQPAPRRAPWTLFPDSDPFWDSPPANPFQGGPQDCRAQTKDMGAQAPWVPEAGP

[1] = Table 1C, co-factors cyclin H and MNAT1, read-out: CDK7 IC50
[2] = Table 2, co-factors cyclin H and MNAT1, read-out: CDK7 (calculated IC50)

Structure (SMILES): C=CC(=O)Nc1ccc(C(=O)N[C@H]2CCC[C@@H](Nc3ncc(Cl)c(-c4c[nH]c5ccccc45)n3)C2)c(N2CCOCC2)c1 [Compound 133, 4-acrylamido-N-((1S,3R)-3-(5-chloro-4-(1H-indol-3-yl)pyrimidin-2-ylamino)cyclohexyl)-2-morpholinobenzamide]
IC50 (CDK7; [1]): 100 to 1000 nM
IC50 (Jurkat cells): < 500 nM

Structure (SMILES): C=CC(=O)Nc1ccc(C(=O)N[C@H]2CCC[C@@H](Nc3ncc(F)c(-c4c[nH]c5ccccc45)n3)C2)cc1 [Compound 137, 4-acrylamido-N-((1S,3R)-3-(5-fluoro-4-(1H-indol-3-yl)pyrimidin-2-ylamino)cyclohexyl)benzamide]
IC50 (CDK7; [1]): 100 to 1000 nM
IC50 (Jurkat cells): < 500 nM

Structure (SMILES): CN(C)C/C=C/C(=O)Nc1ccc(C(=O)N[C@H]2C[C@@H](Nc3ncc(Cl)c(-c4c[nH]c5ccccc45)n3)CC(F)(F)C2)cc1 [Compound 139]
IC50 (CDK7; [1]): > 1000 nM
IC50 (Jurkat cells): 500 to 5000 nM

Structure (SMILES): C=CC(=O)Nc1ccc(C(=O)NC2CCCC(Nc3ncc(Cl)c(-c4sc(C)nc4C)n3)C2)cc1 (stereo not shown) [Compound 142]
IC50 (CDK7; [1]): 100 to 1000 nM
IC50 (Jurkat cells): < 500 nM

Structure (SMILES): Cc1noc(C)c1-c1nc(N[C@@H]2CCC[C@H](NC(=O)c3ccc(NC(=O)/C=C/CN(C)C)cc3)C2)ncc1Cl [Compound 144]
IC50 (CDK7; [1]): 100 to 1000 nM
IC50 (Jurkat cells): < 500 nM

Structure (SMILES): C=CC(=O)Nc1ccc(C(=O)N[C@H]2CCC[C@@H](Nc3ncc(Cl)c(-c4c(C)noc4C)n3)C2)cc1 [Compound 145]
IC50 (CDK7; [1]): < 1000 nM
IC50 (Jurkat cells): < 500 nM

Structure (SMILES): C=CC(=O)Nc1ccc(C(=O)N[C@H]2CCC[C@@H](Nc3ncc(C4CC4)c(-c4c[nH]c5ccccc45)n3)C2)cc1 [Compound 146]
IC50 (CDK7; [1]): 100 to 1000 nM
IC50 (Jurkat cells): 500 to 5000 nM

Structure (SMILES): C=CC(=O)Nc1ccc(C(=O)N[C@H]2CC[C@@H](Nc3ncc(Cl)c(-c4c[nH]c5ccccc45)n3)CC2)cc1 [Compound 147]
IC50 (CDK7; [1]): < 1000 nM
IC50 (Jurkat cells): < 500 nM

Structure (SMILES): C=CC(=O)Nc1ccc(C(=O)N[C@H]2CCC[C@@H](Nc3ncc(Cl)c(-c4cn(C)c5ccccc45)n3)C2)cc1 [Compound 152]
IC50 (CDK7; [1]): 100 to 1000 nM
IC50 (Jurkat cells): < 500 nM

Structure (SMILES): CN1CC[C@H](c2c(O)cc(O)c3c(=O)cc(-c4ccccc4Cl)oc23)[C@H](O)C1 [Flavopiridol, flavopiridol, reference compound]
IC50 (MV4-11): < 500 nM
IC50 (SKBR3): < 500 nM
IC50 (THP-1): < 500 nM
IC50 (A673): < 500 nM
IC50 (Hs822T): > 5000 nM
IC50 (Hs863T): > 5000 nM
IC50 (hTERT-HME1): < 500 nM
IC50 (SK-ES-1): < 500 nM
IC50 (MCF10A): < 500 nM
IC50 (RD-ES): < 500 nM
IC50 (MDA-MB231): < 500 nM
IC50 (SAOS): < 500 nM
IC50 (RS4-11): < 500 nM
IC50 (MNNG-HOS Cl #5): 500 to 5000 nM
IC50 (MCF7): 500 to 5000 nM
IC50 (T47D): > 5000 nM
IC50 (HL60): < 500 nM
IC50 (143B): 500 to 5000 nM

Structure (SMILES): CC(C)[C@]12O[C@H]1[C@@H]1O[C@]13[C@]1(O[C@H]1C[C@H]1C4=C(CC[C@@]13C)C(=O)OC4)[C@@H]2O [Triptolide, triptolide, reference compound]
IC50 (MV4-11): < 500 nM
IC50 (SKBR3): < 500 nM
IC50 (THP-1): < 500 nM
IC50 (A673): < 500 nM
IC50 (Hs822T): 500 to 5000 nM
IC50 (Hs863T): > 5000 nM
IC50 (hTERT-HME1): < 500 nM
IC50 (SK-ES-1): < 500 nM
IC50 (MCF10A): < 500 nM
IC50 (RD-ES): < 500 nM
IC50 (MDA-MB231): < 500 nM
IC50 (SAOS): < 500 nM
IC50 (RS4-11): < 500 nM
IC50 (MNNG-HOS Cl #5): < 500 nM
IC50 (MCF7): < 500 nM
IC50 (T47D): > 5000 nM
IC50 (HL60): < 500 nM
IC50 (143B): < 500 nM

Structure (SMILES): CN(C)C/C=C/C(=O)Nc1ccc(C(=O)N[C@@H]2CCC[C@H](Nc3ncc(Cl)c(-c4c[nH]c5ccccc45)n3)C2)cc1 [compound 101]
IC50 (CDK7; [1]): 100 to 1000 nM
IC50 (CDK7; [2]): 100 to 1000 nM
IC50 (CDK5/p25): > 1000 nM
IC50 (Jurkat cells): 500 to 5000 nM
IC50 (MLK3): > 1000 nM

Structure (SMILES): CN(C)C/C=C/C(=O)Nc1ccc(C(=O)NC2(C)CCCC(Nc3ncc(Cl)c(-c4c[nH]c5ccccc45)n3)C2)cc1 (stereo not shown) [compound 128]
IC50 (CDK7; [1]): < 100 nM
IC50 (Jurkat cells): < 500 nM

Structure (SMILES): CN(C)C/C=C/C(=O)Nc1cccc(C(=O)NC2CCC(Nc3ncc(Cl)c(-c4c[nH]c5ccccc45)n3)CC2)c1 (stereo not shown) [compound 140]
IC50 (CDK7; [1]): < 100 nM
IC50 (Jurkat cells): < 500 nM

Now from value to compound:

IC50 (CDK7; [1]): < 100 nM
IC50 (Jurkat cells): < 500 nM
Structure (SMILES): CN(C)C/C=C/C(=O)Nc1ccc(CN[C@H]2CCC[C@@H](Nc3ncc(Cl)c(-c4c[nH]c5ccccc45)n3)C2)cc1 [Compound 129, (E)-N-(4-(((1S,3R)-3-(5-chloro-4-(1H-indol-3-yl)pyrimidin-2-ylamino)cyclohexylamino)methyl)phenyl)-4-(dimethylamino)but-2-enamide]

IC50 (CDK7; [1]): < 100 nM
IC50 (Jurkat cells): < 500 nM
Structure (SMILES): C[Si](C)(C)C#CC(=O)Nc1ccc(C(=O)NC23CCCC(Nc4ncc(Cl)c(-c5c[nH]c6ccccc56)n4)(C2)C3)cc1 [Compound 130, N-(5-(5-chloro-4-(1H-indol-3-yl)pyrimidin-2-ylamino)bicyclo[3.1.1]heptan-1-yl)-4-(3-(trimethylsilyl)propiolamido)benzamide]

IC50 (CDK7; [1]): < 100 nM
IC50 (Jurkat cells): < 500 nM
Structure (SMILES): CN(C/C=C/C(=O)Nc1ccc(C(=O)N[C@H]2CCC[C@@H](Nc3ncc(Cl)c(-c4c[nH]c5ccccc45)n3)C2)cc1)CC(=O)O [Compound 131, 2-(((E)-4-(4-((1S,3R)-3-(5-chloro-4-(1H-indol-3-yl)pyrimidin-2-ylamino)cyclohexylcarbamoyl)phenylamino)-4-oxobut-2-enyl)(methyl)amino)acetic acid]

IC50 (CDK7; [1]): < 100 nM
IC50 (Jurkat cells): < 500 nM
Structure (SMILES): C=CC(=O)Nc1cccc(C(=O)N[C@H]2CC[C@H](Nc3ncc(Cl)c(-c4c[nH]c5ccccc45)n3)CC2)c1 [Compound 135, 3-acrylamido-N-((trans)-4-(5-chloro-4-(1H-indol-3-yl)pyrimidin-2-ylamino)cyclohexyl)benzamide]

IC50 (CDK7; [1]): < 100 nM
IC50 (Jurkat cells): < 500 nM
Structure (SMILES): C=CC(=O)Nc1ccc(C(=O)N[C@H]2CCC[C@@H](Nc3ncc(Cl)c(-c4cnn5ccccc45)n3)C2)cc1 [Compound 138, 4-acrylamido-N-((1S,3R)-3-(5-chloro-4-(pyrazolo[1,5-a]pyridin-3-yl)pyrimidin-2-ylamino)cyclohexyl)benzamide]

IC50 (CDK7; [1]): < 100 nM
IC50 (Jurkat cells): < 500 nM
Structure (SMILES): Cc1nc(C)c(-c2nc(NC3CCCC(NC(=O)c4ccc(NC(=O)/C=C/CN(C)C)cc4)C3)ncc2Cl)s1 (stereo not shown) [Compound 141]

IC50 (CDK7; [1]): < 100 nM
IC50 (CDK7; [2]): < 100 nM
IC50 (CDK5/p25): > 1000 nM
IC50 (Jurkat cells): < 500 nM
IC50 (MLK3): > 1000 nM
Structure (SMILES): CN(C)C/C=C/C(=O)Nc1ccc(C(=O)N[C@@H]2CCC[C@@H](Nc3ncc(Cl)c(-c4c[nH]c5ccccc45)n3)C2)cc1 [compound 104]

IC50 (CDK7; [1]): < 100 nM
IC50 (Jurkat cells): < 500 nM
Structure (SMILES): CN(C)C/C=C/C(=O)Nc1ccc(C(=O)NC2CCCC(Nc3ncc(Cl)c(-c4c[nH]c5ccccc45)n3)C2)c(F)c1 (stereo not shown) [compound 125]
